Data taken from patent US8436031B2 (priority 2004, dated 2013).

biological target: MarA (Escherichia coli, UniProt P0ACH5); assay: Selective marker (ccdB) under MarA-activated promoter; cell survival under MarA expression (Example 2); assay type: cell-based; parameters: key: *: good inhibition of MarA; **: very good inhibition of MarA; settings: inhibition of MarA; cell survival under conditions of MarA expression
From the text: In this example, the expression of a selective marker (e.g., ccdB) is put under the direct control of a promoter activated by MarA (e.g., inaA, galT, or micF). In the absence of MarA, the expression of the selective marker is silent and cells survive. Synthesis of MarA from an inducible plasmid in a bacterial or yeast cell leads to the activation of the inaA promoter, expression of ccdB, and subsequently results in cell death. Compounds that inhibit MarA are those that permit cell survival under conditions of MarA expression. In Table 4, * indicates good inhibition of MarA and ** indicates very good inhibition of MarA.

Chain of MarA (P0ACH5 whole entry, looked up): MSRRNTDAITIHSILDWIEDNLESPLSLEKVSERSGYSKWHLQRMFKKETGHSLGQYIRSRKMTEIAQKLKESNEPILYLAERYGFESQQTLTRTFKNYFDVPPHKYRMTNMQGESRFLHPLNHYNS

Structure (SMILES)	MarA inhibition score (cell survival)
N#Cc1c(-c2ccc3c(c2)OCO3)c(C#N)c2nc3ccccc3n2c1N [AB, 1-Amino-3-benzo[1,3]dioxol-5-yl-benzo[4,5]imidazo[1,2-a]pyridine-2,4-dicarbonitrile]	**
O=c1cc(-c2ccccc2)oc2ccc(F)cc12 [AZ, 6-fluoro-2-phenyl-4H-chromen-4-one]	**
CCCSc1nnc2c(n1)OC(c1ccc(OC)cc1)Nc1ccccc1-2 (stereo not shown) [K, 6-(4-Methoxy-phenyl)-3-propylsulfanyl-6,7-dihydro-5-oxa-1,2,4,7-tetraaza-dibenzo[a,c]cycloheptene]	*
CCOC(=O)C1=C(C)N=c2sc(=Cc3ccc(-c4ccc([N+](=O)[O-])cc4C)o3)c(=O)n2C1c1ccc2c(c1)OCO2 (stereo not shown) [P, 5-Benzo[1,3]dioxol-5-yl-7-methyl-2-[5-(2-methyl-4-nitro-phenyl)-furan-2-ylmethylene]-3-oxo-2,3-dihydro-5H-thiazolo[3,2-a]pyrimidine-6-carboxylic acid ethyl ester]	*
CN(C)c1ccc(-c2cc(=O)c3ccccc3o2)cc1 [AW, 2-[4-(dimethylamino)phenyl]-4H-chromen-4-one]	**
COc1ccc2c(=O)cc(-c3ccccc3)oc2c1 [BA, 7-methoxy-2-phenyl-4H-chromen-4-one]	*
CCCCSc1nnc2c(n1)OC(c1ccc(OC)cc1OC)Nc1ccccc1-2 (stereo not shown) [H, 3-Butylsulfanyl-6-(2,4-dimethoxy-phenyl)-6,7-dihydro-5-oxa-1,2,4,7-tetraaza-dibenzo[a,c]cycloheptene]	*
CSc1nnc2c(n1)OC(c1ccc(I)o1)Nc1ccccc1-2 (stereo not shown) [A, 6-(5-Iodo-furan-2-yl)-3-methylsulfanyl-6,7-dihydro-5-oxa-1,2,4,7-tetraaza-dibenzo[a,c]cycloheptene]	**
COC(=O)c1ccccc1NC(=O)CSc1nnc(-c2ccco2)n1-c1ccccc1 [AC, 2-[2-(5-Furan-2-yl-4-phenyl-4H-[1,2,4]triazol-3-ylsulfanyl)-acetylamino]-benzoic acid methyl ester]	*
CCCSc1nnc2c(n1)OC(c1ccc(OCc3ccccc3)cc1)Nc1ccccc1-2 (stereo not shown) [F, 6-(4-Benzyloxy-phenyl)-3-propylsulfanyl-6,7-dihydro-5-oxa-1,2,4,7-tetraaza-dibenzo[a,c]cycloheptene]	**
O=C1C=Cc2ccccc2/C1=N\Oc1ccc2noc3c2c1C(=O)c1ccccc1-3 [Z, [1,2]Naphthoquinone 1-[O-(6-oxo-6H-anthra[1,9-cd]isoxazol-5-yl)-oxime]]	*
O=C1C(=C2NC(c3ccccn3)C3C(=O)N(c4ccccc4)C(=O)C23)C(=O)c2ccccc21 (stereo not shown) [BB, 4-(1,3-dioxo-1,3-dihydro-2H-inden-2-yliden)-2-phenyl-6-(2-pyridinyl)tetrahydro pyrrolo[3,4-c]pyrrole-1,3(2H,3aH)-dione]	*
O=c1cc(-c2ccc(F)cc2)oc2ccccc12 [BE, 2-(4-fluorophenyl)-4H-chromen-4-one]	*
CSc1nnc2c(n1)OC(c1ccc(-c3ccc([N+](=O)[O-])cc3)o1)Nc1ccccc1-2 (stereo not shown) [D, 3-Methylsulfanyl-6-[5-(4-nitro-phenyl)-furan-2-yl]-6,7-dihydro-5-oxa-1,2,4,7-tetraaza-dibenzo[a,c]cycloheptene]	*
O=C(O)COn1c(-c2ccccc2)nc2ccc([N+](=O)[O-])cc21 [BD, 2-[(6-nitro-2-phenyl-1H-1,3-benzimidazol-1-yl)oxy]acetic acid]	*
Cc1ccc(COn2c(-c3ccccc3)nc3ccc([N+](=O)[O-])cc32)cc1 [AJ, 1-(4-Methyl-benzyloxy)-6-nitro-2-phenyl-1H-benzoimidazole]	*
CCOC(=O)C1=C(C)N=c2s/c(=C/c3ccc(-c4ccc(C)c([N+](=O)[O-])c4)o3)c(=O)n2C1c1ccc(N(C)C)cc1 (stereo not shown) [X, 5-(4-Dimethylamino-phenyl)-7-methyl-2-[5-(4-methyl-3-nitro-phenyl)-furan-2-ylmethylene]-3-oxo-2,3-dihydro-5H-thiazolo[3,2-a]pyrimidine-6-carboxylic acid ethyl ester]	**
O=c1/c(=C/c2c[nH]nc2-c2ccccc2)sc2nc3ccccc3n12 [M, 2-(3-Phenyl-1H-pyrazol-4-ylmethylene)-benzo[4,5]imidazo[2,1-b]thiazol-3-one]	**
O=c1cc(-c2ccc(O)cc2)oc2ccccc12 [BG, 2-(4-hydroxyphenyl)-4H-chromen-4-one]	*

Structure (SMILES)	MarA inhibition score (cell survival)
Cc1ccc(-c2nc3c(=O)n(-c4ccccc4)c4c(c(=O)n(C)c(=O)n4C)c3o2)cc1 [AL, 6,8-Dimethyl-5-phenyl-2-p-tolyl-5H,6H-1-oxa-3,5,6,8-tetraaza-cyclopenta[a]naphthalene-4,7,9-trione]	*
CSc1cccc(NC(=O)CSc2nnc(-c3ccc4nonc4c3)n2C)c1 [AE, 2-(5-Benzo[1,2,5]oxadiazol-5-yl-4-methyl-4H-[1,2,4]triazol-3-ylsulfanyl)-N-(3-methylsulfanyl-phenyl)-acetamide]	*
O=c1/c(=C/c2cn(-c3ccccc3)nc2-c2ccc(F)cc2)sc2nc3ccccc3n12 [AM, 2-[3-(4-Fluoro-phenyl)-1-phenyl-1H-pyrazol-4-ylmethylene]-benzo[4,5]imidazo[2,1-b]thiazol-3-one]	**
CSc1nnc2c(n1)OC(c1ccc([N+](=O)[O-])o1)Nc1ccccc1-2 (stereo not shown) [C, 3-Methylsulfanyl-6-(5-nitro-furan-2-yl)-6,7-dihydro-5-oxa-1,2,4,7-tetraaza-dibenzo[a,c]cycloheptene]	*
O=[N+]([O-])c1ccc2nc(-c3ccccc3)n(OCc3cccc(C(F)(F)F)c3)c2c1 [AG, 6-Nitro-2-phenyl-1-(3-trifluoromethyl-benzyloxy)-1H-benzoimidazole]	**
CCOC(=O)C(C(N)=O)C1(O)OC(c2ccc(C)cc2)=CC1=O (stereo not shown) [BC, 2-(2-Hydroxy-3-oxo-5-p-tolyl-2,3-dihydro-furan-2-yl)-malonamic acid ethyl ester]	*
C=CCOc1ccc(C2Nc3ccccc3-c3nnc(SCCCC)nc3O2)cc1 (stereo not shown) [I, 6-(4-Allyloxy-phenyl)-3-butylsulfanyl-6,7-dihydro-5-oxa-1,2,4,7-tetraaza-dibenzo[a,c]cycloheptene]	**
CCCCSc1nnc2c(n1)OC(c1ccc(OCC)cc1)Nc1ccccc1-2 (stereo not shown) [J, 3-Butylsulfanyl-6-(4-ethoxy-phenyl)-6,7-dihydro-5-oxa-1,2,4,7-tetraaza-dibenzo[a,c]cycloheptene]	*
CCOc1ccc(C2Nc3ccccc3-c3nnc(SC)nc3O2)cc1 (stereo not shown) [B, 6-(4-Ethoxy-phenyl)-3-methylsulfanyl-6,7-dihydro-5-oxa-1,2,4,7-tetraaza-dibenzo[a,c]cycloheptene]	*
CCOC(=O)C1=C(C)N=c2s/c(=C/c3ccc(-c4cccc(C(F)(F)F)c4)o3)c(=O)n2C1c1ccccc1 (stereo not shown) [U, 7-Methyl-3-oxo-5-phenyl-2-[5-(3-trifluoromethyl-phenyl)-furan-2-ylmethylene]-2,3-dihydro-5H-thiazolo[3,2-a]pyrimidine-6-carboxylic acid ethyl ester]	**
Cn1c(=O)c2c3oc(-c4ccc([N+](=O)[O-])cc4)nc3c(=O)n(-c3ccccc3)c2n(C)c1=O [AK, 6,8-Dimethyl-2-(4-nitro-phenyl)-5-phenyl-5H,6H-1-oxa-3,5,6,8-tetraaza-cyclopenta[a]naphthalene-4,7,9-trione]	**
COn1c(-c2ccc(C)cc2)nc2ncccc21 [BF, 1-methoxy-2-(4-methylphenyl)-1H-imidazo[4,5-b]pyridine]	*
O=[N+]([O-])c1ccc2nc(-c3ccccc3)n(OCc3ccccc3)c2c1 [AI, 1-Benzyloxy-6-nitro-2-phenyl-1H-benzoimidazole]	**
c1ccc(COn2c(-c3ccccc3)nc3ncccc32)cc1 [AX, 1-(benzyloxy)-2-phenyl-1H-imidazo[4,5-b]pyridine]	**
O=C1C(=C2NC(c3ccccn3)C3C(=O)N(c4ccccc4)C(=O)C23)C(=O)c2ccccc21 (stereo not shown) [AF, 4-(1,3-Dioxo-indan-2-ylidene)-2-phenyl-6-pyridin-2-yl-tetrahydro-pyrrolo[3,4-c]pyrrole-1,3-dione]	**
CCOC(=O)C1=C(C)N=c2s/c(=C\c3ccc(-c4cccc(C(=O)O)c4)o3)c(=O)n2C1c1ccc(N(C)C)cc1 (stereo not shown) [W, 2-[5-(3-Carboxy-phenyl)-furan-2-ylmethylene]-5-(4-dimethylamino-phenyl)-7-methyl-3-oxo-2,3-dihydro-5H-thiazolo[3,2-a]pyrimidine-6-carboxylic acid ethyl ester]	**
C=Cc1nc2s/c(=C\c3cn(-c4ccccc4)nc3-c3ccc(F)cc3)c(=O)n2c1C [AO, 2-[3-(4-Fluoro-phenyl)-1-phenyl-1H-pyrazol-4-ylmethylene]-5-methyl-6-vinyl-imidazo[2,1-b]thiazol-3-one]	**
c1ccc(CSc2ncc(-c3nnnn3-c3ccccc3)c(-c3ccccc3)n2)cc1 [AY, 2-(benzylthio)-4-phenyl-5-(1-phenyl-1H-1,2,3,4-tetraazol-5-yl)pyrimidine]	**
